Measurements from the NIST ThermoML archive (doi:10.1021/je4007162).
Numbers after ± are expanded uncertainties.

Experiment: molar enthalpy of vaporization or sublimation
Conditions: 298.15 K; Liquid; calvet microcalorimetry

Which molar enthalpy does the source give for `C1CSCCN1` [thiomorpholine] here?
The molar enthalpy was 54 ± 3 kJ/mol.

For `C1COCCN1` [tetrahydro-1,4-oxazine], which molar enthalpy is on record?
Its molar enthalpy is 46.5 ± 0.8 kJ/mol.
